{
  "source": "patent US20110027293A1",
  "about": "“METHODS AND COMPOSITIONS FOR THE INHIBITION OF VIRAL INFECTION BY TARGETING INTRACELLULAR TRAFFICKING” (priority 2008, published 2011)",
  "key": {"[1]": {"system": "hepatitis C virus (HCV)", "test": "GFP expression of cells infected with HCV construct with and without EHNA", "type": "cell-based", "details": "relative to infection in the absence of EHNA; FIG. 15B vs 15D", "description": "(§1) The levels of infection are based on the inhibition of GFP expression, which was determined by infection of cells by MoMLV and HCV viral constructs that included cloned GFP. To determine the consequences of dynein inhibition on the viral life cycle, the expression of viral genes was correlated to the expression (or loss of expression) of GFP. Pictured are cells infected with MoMLV and Hepatitis C with and without EHNA-induced dynein inhibition. Brightness is an indication of GFP expression.\n(§2) ATPase activity was inhibited using an anti-dynein small organic molecule (erythro-9-(2-hydroxy-3-nonyl)adenine; EHNA) in another set of experiments. EHNA was obtained from A. G. Scientific and dissolved in Dubelco's Modified Eagle's Medium (DMEM). The solution was added to several sets of treated cells with final concentrations of 0.1 μM, 0.2 μM, 0.5 μM, and 1 μM (FIG. 14).\n(§3) To determine the consequences of the loss of cytoplasmic dynein motor activity on the viral life cycle, we cloned the green fluorescent protein (GFP) gene into the viral genomes and assessed GFP expression upon loss of cytoplasmic dynein motor activity (FIG. 15)."}, "[2]": {"system": "MoMLV", "test": "GFP expression of cells infected with MoMLV construct with and without EHNA", "type": "cell-based, Moloney murine leukemia virus (MoMLV)", "details": "relative to infection in the absence of EHNA; FIG. 15A vs 15C", "description": "as §1, §2, §3"}},
  "data": [
    {"smiles": "CCCCCC[C@@H]([C@@H](C)O)n1cnc2c(N)ncnc21", "note": "(racemic) [EHNA, erythro-9-(2-hydroxy-3-nonyl)adenine]", "values": [
      {"measurement": "infection by hepatitis C virus (inhibition of GFP expression)", "setting": "[1]", "value": "inhibits infection"},
      {"measurement": "infection by MoMLV (inhibition of GFP expression)", "setting": "[2]", "value": "inhibits infection"}
    ]}
  ]
}
